Reference: BigSolDB 2.1

SMILES: Cn1cc[n+](CCCC[n+]2ccn(C)c2)c1.F[P-](F)(F)(F)(F)F.F[P-](F)(F)(F)(F)F
- solubility (mole fraction) (in 2-butanone, 283.15 K): 0.00838
- solubility (mole fraction) (in 2-butanone, 288.15 K): 0.00936
- solubility (mole fraction) (in 2-butanone, 294.15 K): 0.0114
- solubility (mole fraction) (in 2-butanone, 299.15 K): 0.014
- solubility (mole fraction) (in 2-butanone, 304.15 K): 0.0178
- solubility (mole fraction) (in 2-butanone, 309.15 K): 0.0235
- solubility (mole fraction) (in 2-butanone, 315.15 K): 0.0349
- solubility (mole fraction) (in 2-butanone, 320.15 K): 0.0496
- solubility (mole fraction) (in 2-butanone, 325.15 K): 0.0728
- solubility (mole fraction) (in acetophenone, 299.65 K): 0.00127
- solubility (mole fraction) (in acetophenone, 303.65 K): 0.00198
- solubility (mole fraction) (in acetophenone, 307.35 K): 0.00285
- solubility (mole fraction) (in acetophenone, 313.15 K): 0.00472
- solubility (mole fraction) (in acetophenone, 318.15 K): 0.00677
- solubility (mole fraction) (in acetophenone, 323.15 K): 0.00919
- solubility (mole fraction) (in acetophenone, 328.15 K): 0.0117
- solubility (mole fraction) (in acetophenone, 332.15 K): 0.0137
- solubility (mole fraction) (in acetylacetone, 283.15 K): 0.00252
- solubility (mole fraction) (in acetylacetone, 288.15 K): 0.0026
- solubility (mole fraction) (in acetylacetone, 293.15 K): 0.00295
- solubility (mole fraction) (in acetylacetone, 297.45 K): 0.00352
- solubility (mole fraction) (in acetylacetone, 302.65 K): 0.00473
- solubility (mole fraction) (in acetylacetone, 309.15 K): 0.00768
- solubility (mole fraction) (in acetylacetone, 314.15 K): 0.0121
- solubility (mole fraction) (in acetylacetone, 320.15 K): 0.0227
- solubility (mole fraction) (in acetylacetone, 325.15 K): 0.0409
- solubility (mole fraction) (in acetylacetone, 330.15 K): 0.0784
- solubility (mole fraction) (in cyclohexanone, 283.15 K): 0.000563
- solubility (mole fraction) (in cyclohexanone, 288.15 K): 0.0009
- solubility (mole fraction) (in cyclohexanone, 293.15 K): 0.00138
- solubility (mole fraction) (in cyclohexanone, 298.35 K): 0.00206
- solubility (mole fraction) (in cyclohexanone, 302.15 K): 0.00271
- solubility (mole fraction) (in cyclohexanone, 308.65 K): 0.0041
- solubility (mole fraction) (in cyclohexanone, 313.15 K): 0.00529
- solubility (mole fraction) (in cyclohexanone, 318.25 K): 0.00688
- solubility (mole fraction) (in cyclohexanone, 323.15 K): 0.00857
- solubility (mole fraction) (in cyclohexanone, 328.15 K): 0.0105
- solubility (mole fraction) (in cyclohexanone, 333.15 K): 0.0124
- solubility (mole fraction) (in water, 283.15 K): 9.5e-05
- solubility (mole fraction) (in water, 288.45 K): 0.000124
- solubility (mole fraction) (in water, 293.15 K): 0.000156
- solubility (mole fraction) (in water, 298.15 K): 0.000203
- solubility (mole fraction) (in water, 303.65 K): 0.000274
- solubility (mole fraction) (in water, 308.15 K): 0.000348
- solubility (mole fraction) (in water, 313.15 K): 0.000456
- solubility (mole fraction) (in water, 318.35 K): 0.000608
- solubility (mole fraction) (in water, 323.15 K): 0.00079
- solubility (mole fraction) (in water, 328.15 K): 0.00105
- solubility (mole fraction) (in water, 333.15 K): 0.00138
